Source: article PMC4343023, “Selectivity of odorant-binding proteins from the southern house mosquito tested against physiologically relevant ligands” (Frontiers in Physiology, 2015)
Read-outs that look alike come from different tables or passages of the source.

What was measured:
Assay in all cases: biochemical
Format in all cases: binding
Details in all cases: for Int (fluorescence emission): residual NPN fluorescence, normalized to 100 prior to ligand, screen at 2–20 μM ligand
[1] = target: CquiOBP2 (Culex quinquefasciatus, UniProt C7BDZ6)
Protocol: (§1) Binding affinity (Ban et al., [2002]) was tested with a panel of 34 compounds, including attractants, a mosquito oviposition pheromone, repellents, terpenoids and other putative mosquito attractants or repellents. Unless otherwise specified, they were purchased from Sigma-Aldrich/Fluka/Acros (St. Louis, MO). Repellents: DEET (N,N-diethyl-3-methylbenzamide), PMD (p-mentan-3,8-diol) (Bedoukian Research, Inc.), picaridin (butan-2-yl 2-(2-hydroxyethyl)piperidine-1-carboxylate), IR3535 (ethyl 3-[acetyl(butyl)amino]propanoate) (gifts from Dr. Kamal Chauhan, USDA, ARS, Beltsville), (±)-citronellal, and ethyl 2-phenylacetate. Oviposition attractants: (5R,6S)-6-acetoxy-5-hexadecanolide, MOP (Bedoukian Research, Inc.), skatole, indole, 4-methylphenol, and 4-ethylphenol. Human derived compounds: nonanal, 6-methyl-5-hepten-2-one (sulcatone). Terpenoids and other putative attractants/repellents: linalool, linalool oxide, eucalyptol, camphor, fenchone, thujone, geranyl acetate, eugenol, (Z)-3-hexenyl acetate, 1-octen-3-ol, 1-octyn-3-ol, 3-octanol, 1-hexanol, methylcyclohexanol, methyl salicylate, cyclohexanone, acetophenone, benzaldehyde, 3,5-dimethoxybenzene, 1,2-dimethoxybenzene, and 2-phenylethanol.
(§2) Fluorescence spectra were recorded in a right angle configuration on a spectrofluorimeter (RF-5301, Shimadzu, Kyoto, Japan) at room temperature using a 1 cm light path fluorimeter quartz cuvette. Slit widths of 10 nm were selected for both excitation and emission. N-phenyl-1-naphthylamine (NPN, or 1-NPN) (Ban et al., [2002]) was dissolved in methanol to yield a 1 mM stock solution. The binding affinity for NPN was determined by adding aliquots of NPN into a 10 μg/ml (microgram) protein sample. NPN was excited at 337 nm and emission spectra were recorded at high speed scanning between 350 and 500 nm. All ligands used in competition experiments were dissolved in spectrophotometric grade methanol. Binding data were collected in three independent measurements. Bound ligand was evaluated from fluorescence intensity assuming that the protein was 100% active, with a stoichiometry of 1:1 (protein: ligand) at saturation. The KNPN values were estimated using Prism 5 (GraphPad Software, Inc., La Jolla, CA) by non-linear regression for a unique site of binding. The curves were linearized using Scatchard plots. Dissociation constants of the competitors were calculated according to Campanacci et al. ([2001]) from the corresponding IC50 values in the equation: Kdiss = [IC50]/1+[NPN]/KNPN, where [NPN] is the free concentration of NPN and KNPN is the dissociation constant of the complex protein/NPN.

[2] = target: CquiOBP5 (Culex quinquefasciatus, UniProt C7BDZ9)
Protocol: as §1, §2

[3] = target: CquiOBP1 (Culex quinquefasciatus, UniProt Q8T6I2)
Protocol: as §1, §2

[4] = CquiOBP2, NPN displacement titration, read-out: IC50
[5] = CquiOBP2, calculated from IC50 of NPN displacement, read-out: Kd
[6] = CquiOBP5, NPN displacement titration, read-out: IC50
[7] = CquiOBP5, calculated from IC50 of NPN displacement, read-out: Kd
[8] = CquiOBP1, NPN displacement titration, read-out: IC50
[9] = CquiOBP1, calculated from IC50 of NPN displacement, read-out: Kd

CquiOBP2, sequence (C7BDZ6 entry or part of it): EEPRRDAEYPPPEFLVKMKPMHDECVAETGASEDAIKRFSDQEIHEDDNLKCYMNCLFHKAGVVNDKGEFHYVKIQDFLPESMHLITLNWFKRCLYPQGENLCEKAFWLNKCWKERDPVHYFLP
CquiOBP1, sequence (Q8T6I2 entry or part of it): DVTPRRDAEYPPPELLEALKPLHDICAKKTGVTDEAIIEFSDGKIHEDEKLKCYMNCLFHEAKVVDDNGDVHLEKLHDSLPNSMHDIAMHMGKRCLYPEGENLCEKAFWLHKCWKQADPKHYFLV
CquiOBP5, sequence (C7BDZ9 entry or part of it): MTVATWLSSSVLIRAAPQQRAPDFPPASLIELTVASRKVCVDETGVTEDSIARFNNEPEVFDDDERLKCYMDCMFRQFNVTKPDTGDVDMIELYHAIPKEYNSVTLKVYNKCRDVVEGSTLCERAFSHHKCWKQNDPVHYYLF

Molecule | IC50 [1, 4] [µM] | Kd [1, 5] [µM] | Int (fluorescence emission) ([1]; CquiOBP2) | IC50 [2, 6] [µM] | Kd [2, 7] [µM] | Int (fluorescence emission) ([2]; CquiOBP5) | IC50 [3, 8] [µM] | Kd [3, 9] [µM] | Int (fluorescence emission) ([3]; CquiOBP1) | IC50 [1] [µM] | Kd [1] [µM] | IC50 [2] [µM] | Kd [2] [µM] | IC50 [3] [µM] | Kd [3] [µM] | binding to CquiOBP2 (in words) ([1]; in vitro, NPN displacement) | binding to CquiOBP5 (in words) ([2]; in vitro, NPN displacement) | binding to CquiOBP1 (in words) ([3]; in vitro, NPN displacement)
Cc1ccc(O)cc1 [4-Methylphenol, 4-methylphenol] | > 10 | > 2.5 | 85 | > 10 | > 7 | 90 | > 10 | > 6.3 | 73 |  |  |  |  |  |  |  |  | 
CC(=O)OC/C=C(\C)CCC=C(C)C [Geranyl acetate, geranyl acetate] | > 10 | > 2.5 | 90 | > 10 | > 7 | 81 | > 10 | > 6.3 | 94 |  |  |  |  |  |  |  |  | 
CCN(CC)C(=O)c1cccc(C)c1 [DEET, N,N-diethyl-3-methylbenzamide] | > 10 | > 2.5 | 96 | > 10 | > 7 | 92 | > 10 | > 6.3 | 82 |  |  |  |  |  |  |  |  | 
C=CC(O)CCCCC (stereo not drawn) [1-Octen-3-ol, 1-octen-3-ol] | > 10 | > 2.5 | 93 | 11.6 | 8.1 | 59 | > 10 | > 6.3 | 69 |  |  |  |  |  |  |  |  | 
CCOC(=O)Cc1ccccc1 [Ethyl 2-phenylacetate, ethyl 2-phenylacetate] |  |  | 87 |  |  | 91 |  |  | 92 | > 10 | > 2.5 | > 10 | > 7 | > 10 | > 6.3 |  |  | 
C=CC1(C)CCC(C(C)(C)O)O1 (stereo not drawn) [Linalool oxide, linalool oxide] | > 10 | > 2.5 | 95 | > 10 | > 7 | 94 | > 10 | > 6.3 | 92 |  |  |  |  |  |  |  |  | 
CC(=O)c1ccccc1 [Acetophenone, acetophenone] | > 10 | > 2.5 | 92 | > 10 | > 7 | 87 | > 10 | > 6.3 | 88 |  |  |  |  |  |  |  |  | 
CC1CCC(C(C)(C)O)C(O)C1 (stereo not drawn) [PMD, p-mentan-3,8-diol] | 5.3 | 1.3 | 35 | 13.8 | 9.6 | 61 | > 10 | > 6.3 | 80 |  |  |  |  |  |  |  |  | 
Cc1c[nH]c2ccccc12 [Skatole, skatole] | 5.6 | 1.4 | 31 | 14.4 | 10.1 | 62 | > 10 | > 6.3 | 75 |  |  |  |  |  |  | bind | bind | does not bind
CC12CCC(CC1)C(C)(C)O2 [Eucalyptol, eucalyptol] | > 10 | > 2.5 | 90 | > 10 | > 7 | 73 | > 10 | > 6.3 | 96 |  |  |  |  |  |  |  |  | 
CCCCCCO [1-Hexanol, 1-hexanol] | > 10 | > 2.5 | 89 | > 10 | > 7 | 88 | > 10 | > 6.3 | 85 |  |  |  |  |  |  |  |  | 
(±)-citronellal | > 10 | > 2.5 | 88 | > 10 | > 7 | 90 | > 10 | > 6.3 | 65 |  |  |  |  |  |  |  |  | 
